Test results from ChEMBL document CHEMBL1153757, “Multivariate QSAR study of 4,5-dihydroxypyrimidine carboxamides as HIV-1 integrase inhibitors” (Eur J Med Chem, 2009).

target: Human immunodeficiency virus type 1 integrase (Human immunodeficiency virus 1, UniProt Q7ZJM1); assay: Inhibition of HIV1 integrase strand transfer activity
Sequence (Q7ZJM1 whole entry): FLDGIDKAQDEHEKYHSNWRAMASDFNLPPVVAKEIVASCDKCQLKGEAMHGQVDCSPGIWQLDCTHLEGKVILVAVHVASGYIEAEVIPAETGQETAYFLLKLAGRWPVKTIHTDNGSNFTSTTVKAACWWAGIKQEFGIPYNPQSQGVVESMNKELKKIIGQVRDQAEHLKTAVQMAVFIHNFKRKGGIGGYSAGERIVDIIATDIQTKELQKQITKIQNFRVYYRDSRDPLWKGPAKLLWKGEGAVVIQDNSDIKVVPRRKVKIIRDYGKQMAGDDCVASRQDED

Row | SMILES | IC50 [nM]
1 | O=C(NCn1ccnc1)c1nc(-c2cccs2)nc(O)c1O | 17000
2 | O=C(NCn1cncn1)c1nc(-c2cccs2)nc(O)c1O | 50100
3 | O=C(NCc1cncs1)c1nc(-c2cccs2)nc(O)c1O | 2510
4 | O=C(Nc1ccc2ccccc2c1)c1nc(-c2cccs2)nc(O)c1O | 30.2
5 | O=C(NCc1cc2ccccc2s1)c1nc(-c2cccs2)nc(O)c1O | 10
6 | O=C(NCc1csc2ccccc12)c1nc(-c2cccs2)nc(O)c1O | 50.1
7 | O=C(NCc1cccs1)c1nc(-c2cccs2)nc(O)c1O | 100
8 | O=C(NCc1nccs1)c1nc(-c2cccs2)nc(O)c1O | 200
9 | COc1ccccc1CNC(=O)c1nc(-c2cccs2)nc(O)c1O | 91.2
10 | O=C(NCc1ccccc1F)c1nc(-c2cccs2)nc(O)c1O | 162
11 | O=C(Nc1cccc2ccccc12)c1nc(-c2cccs2)nc(O)c1O | 214
12 | O=C(N[C@@H]1CCc2ccccc21)c1nc(-c2cccs2)nc(O)c1O | 20
13 | O=C(NCC1CCCCC1)c1nc(-c2cccs2)nc(O)c1O | 10
14 | O=C(N[C@H]1CCc2ccccc21)c1nc(-c2cccs2)nc(O)c1O | 617
